This note sets out measurements from patent US6420131B1, “Use of fluorescein aryl ethers in high throughput cytochrome P450 inhibition assays” (Gentest Corporation, priority 1999, dated 2002).

For data set [1], the target named is T1, Rat CYP2D2 (Rattus norvegicus, UniProt P10634).
T1 sequence (P10634 1-500): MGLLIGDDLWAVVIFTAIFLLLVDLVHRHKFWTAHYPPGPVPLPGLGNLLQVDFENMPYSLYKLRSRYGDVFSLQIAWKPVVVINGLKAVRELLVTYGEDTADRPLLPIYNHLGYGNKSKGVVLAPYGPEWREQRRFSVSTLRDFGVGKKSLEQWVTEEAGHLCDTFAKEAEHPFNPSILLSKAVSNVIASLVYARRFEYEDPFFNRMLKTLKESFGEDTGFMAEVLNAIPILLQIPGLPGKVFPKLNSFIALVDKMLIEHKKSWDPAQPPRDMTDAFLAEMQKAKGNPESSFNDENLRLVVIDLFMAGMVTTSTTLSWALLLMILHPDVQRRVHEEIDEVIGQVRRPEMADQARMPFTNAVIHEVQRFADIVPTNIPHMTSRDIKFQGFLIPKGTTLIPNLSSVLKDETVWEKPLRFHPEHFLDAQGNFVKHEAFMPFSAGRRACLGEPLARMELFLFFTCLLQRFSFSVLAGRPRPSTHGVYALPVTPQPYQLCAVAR
Nature of the data set: Turnover of fluorometric substrates by rat CYP2D2.

The target in data set [2] is T2, Rat CYP1A1 (Rattus norvegicus, UniProt P00185).
T2 sequence (P00185 1-524): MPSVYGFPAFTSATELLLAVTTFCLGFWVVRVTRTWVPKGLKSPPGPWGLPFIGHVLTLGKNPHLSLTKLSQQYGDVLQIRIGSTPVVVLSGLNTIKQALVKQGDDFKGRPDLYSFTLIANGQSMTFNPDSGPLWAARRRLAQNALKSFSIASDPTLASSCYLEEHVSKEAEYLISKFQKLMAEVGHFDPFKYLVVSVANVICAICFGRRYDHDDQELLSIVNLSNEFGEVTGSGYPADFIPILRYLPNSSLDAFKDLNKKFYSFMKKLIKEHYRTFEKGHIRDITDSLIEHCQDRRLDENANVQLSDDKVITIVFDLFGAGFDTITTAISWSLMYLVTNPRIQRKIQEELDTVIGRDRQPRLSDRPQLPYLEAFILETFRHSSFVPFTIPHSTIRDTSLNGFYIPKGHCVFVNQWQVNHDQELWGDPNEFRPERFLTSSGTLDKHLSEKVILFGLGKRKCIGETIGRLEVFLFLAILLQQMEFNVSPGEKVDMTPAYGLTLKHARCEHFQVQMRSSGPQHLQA
The data set can be described thus: Turnover of fluorometric substrates by rat CYP1A1. To be noted: substrate uM: Ia 2, AMMC 20, CEC 40, MFC 50, BFC 50, BQ 40, BzRes 50; 30 min; enzyme 50 nM (2.5 nM for CEC).

In data set [3] the target is T3, human CYP3A4 (Homo sapiens, UniProt P08684). To be noted: for Range: human.
T3 sequence (P08684 whole entry): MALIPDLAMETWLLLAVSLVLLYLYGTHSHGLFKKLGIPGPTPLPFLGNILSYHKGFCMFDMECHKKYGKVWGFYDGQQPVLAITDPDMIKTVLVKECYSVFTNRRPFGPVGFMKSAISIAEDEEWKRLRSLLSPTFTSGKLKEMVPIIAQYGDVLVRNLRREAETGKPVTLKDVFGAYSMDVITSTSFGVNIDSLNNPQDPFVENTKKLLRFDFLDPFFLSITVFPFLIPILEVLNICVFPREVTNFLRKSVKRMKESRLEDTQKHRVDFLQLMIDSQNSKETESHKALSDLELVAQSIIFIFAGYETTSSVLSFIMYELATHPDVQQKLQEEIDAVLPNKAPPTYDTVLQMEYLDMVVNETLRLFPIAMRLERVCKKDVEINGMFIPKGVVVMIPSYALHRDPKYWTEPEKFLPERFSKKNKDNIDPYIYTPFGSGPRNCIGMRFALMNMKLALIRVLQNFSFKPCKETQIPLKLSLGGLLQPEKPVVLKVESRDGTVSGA
For data set [4], the system named is panel of Human P450 enzymes. Nature of the data set: Substrate specificity, dealkylation of Compounds Ia and Ib by a panel of human P450 enzymes. In kind it is biochemical. Conditions: various P450s. The protocol: The specificity of several cytochrome P450 enzymes for the dealkylation of Compound Ia (FIG. 1) and Compound Ib (FIG. 2) was examined.
Example Compounds Ia and Ib. […] Final incubation volume was 0.2 ml.

Data set [5] addresses T3, human CYP3A4. Nature of the data set: High throughput cytochrome P450 inhibition screen, CYP3A4. To be noted: Absolute Mean IC50 Values.
The subject of data set [6] is panel of Human P450 enzymes. The data set can be described thus: Specificity of dealkylation of CMFDE and MF by a panel of human P450 enzymes. The class given is biochemical. Conditions: CYP1A1 and CYP2C19; 1 uM substrate.
Data set [7] addresses T4, CYP2C8 (Homo sapiens, UniProt P10632).
T4 sequence (P10632 1-490): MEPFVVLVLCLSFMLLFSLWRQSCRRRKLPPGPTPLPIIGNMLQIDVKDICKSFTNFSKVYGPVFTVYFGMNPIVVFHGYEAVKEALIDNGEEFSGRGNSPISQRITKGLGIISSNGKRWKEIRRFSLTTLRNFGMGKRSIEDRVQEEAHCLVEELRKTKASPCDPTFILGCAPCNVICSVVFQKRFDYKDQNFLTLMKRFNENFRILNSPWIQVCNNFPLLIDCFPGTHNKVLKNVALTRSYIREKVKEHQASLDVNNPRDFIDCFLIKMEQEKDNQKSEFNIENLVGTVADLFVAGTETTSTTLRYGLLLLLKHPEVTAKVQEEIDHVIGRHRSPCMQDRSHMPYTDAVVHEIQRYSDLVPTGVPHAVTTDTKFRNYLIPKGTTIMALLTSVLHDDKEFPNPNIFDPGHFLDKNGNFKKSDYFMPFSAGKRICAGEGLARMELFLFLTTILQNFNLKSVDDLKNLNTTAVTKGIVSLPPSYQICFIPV
Nature of the data set: High throughput cytochrome P450 inhibition screen, CYP2C8, compound Ia as substrate.

Data set [8] concerns the target T4, CYP2C8.
Substrate in data set [9]: O=C(OCc1ccccc1)c1ccccc1-c1c2ccc(=O)cc-2oc2cc(OCc3ccccc3)ccc12
The data set can be described thus: Enzyme kinetics of substrate turnover by cDNA-expressed CYP2C8. To be noted: other: CYP2C8. In kind it is biochemical, human. As to the method:
The evaluation of compounds of Formula I were performed by measuring the kinetics of turnover using cDNA-expressed cytochromes P450 CYP3A4 and CYP2C8. Vmax and Km values are important for the optimization of the assay conditions and for setting the parameters for inhibition experiments.
Example Compound Ia. […] Final incubation volume was 0.2 ml. […] The activity was quantitated by comparing to a standard curve of fluorescein. Apparent Km and Vmax values were calculated by non-linear regression using SigmaPlot software.

Where only a bound is given, the exact number is not on record here.

`CC[N+](C)(CC)CCc1c(C)c2ccc(OC)cc2oc1=O` [AMMC, 3-[2-(N,N-Diethyl-N-methylamino)ethyl]-7-methoxy-4-methylcoumarin] yielded a substrate utilization in [1] (CYP2D2/AMMC, conditions of Table VI) of 45%. Besides, the “Turnover Numbers, CYP2D2” value in data set [1] (substrate uM: Ia 2, AMMC 20, CEC 40, MFC 50, BFC 50, BQ 40, BzRes 50, 30 min, enzyme 50 nM) is recorded as 5.9 pmol product/min/pmol enzyme. Besides, in data set [2], the “Turnover Numbers, CYP1A1” value is listed as “—^b”.

`NC(=O)N1c2ccccc2C=Cc2ccccc21` [Carbamazepine] showed a Range in data set [3] of 5.3.

Consider `Clc1ccccc1C(c1ccccc1)(c1ccccc1)n1ccnc1` [Clotrimazole], for which the Range in [3] is reported as 7.9.

Turning to `O=C(O)c1ccccc1-c1c2ccc(=O)cc-2oc2cc(OCc3ccccc3)ccc12` [Compound Ib, Monobenzyl Fluorescein], the “signal as a substrate” value in [4] is “substantially less signal versus Compound Ia”.

Consider `CC[C@H]1OC(=O)[C@H](C)[C@@H](O[C@H]2C[C@@](C)(OC)[C@@H](O)[C@H](C)O2)[C@H](C)[C@@H](O[C@@H]2O[C@H](C)C[C@H](N(C)C)[C@H]2O)[C@](C)(O)C[C@@H](C)C(=O)[C@H](C)[C@@H](O)[C@]1(C)O` [Erythromycin], for which the IC50 in data set [5] (BFC, substrate BFC) was determined as 4.5 µM; in data set [5] (BQ, substrate BQ), 54.4 µM; in [5] (BzRes, substrate BzRes) it was 1.8 µM; in [5] (Overall, mean over the substrates BzRes, BQ, BFC, Ia) it was 21.5 µM.

On to `C#C[C@]1(O)CC[C@H]2[C@@H]3CCc4cc(O)ccc4[C@H]3CC[C@@]21C` [Ethynylestradiol], for which the Range in [3] came out at 4.5.

On to `COc1ccc2c(c1)Oc1cc(O)ccc1C21OC(=O)c2ccccc21` (centres unmarked) [MF, 3-O-methylfluorescein], for which the “substrate quality based on turnover number” value in data set [6] was “good P450 substrate”.

Regarding `COCC(=O)O[C@]1(CCN(C)CCCc2nc3ccccc3[nH]2)CCc2cc(F)ccc2[C@@H]1C(C)C` [Mibefradil], the Range in [3] came out at 12.

In data set [3], `Clc1ccc(COC(Cn2ccnc2)c2ccc(Cl)cc2Cl)c(Cl)c1` (centres unmarked) [Miconazole] yielded a Range of 11.

`Cc1ncc2n1-c1ccc(Cl)cc1C(c1ccccc1F)=NC2` [Midazolam]: the Range in [3] came to 48.

For the molecule `CC(=O)[C@H]1CC[C@H]2[C@@H]3CCC4=CC(=O)CC[C@]4(C)[C@H]3CC[C@]12C` [Progesterone], in data set [3], the “Absolute Mean IC50 Values, BFC” value was “Activation” and the “Absolute Mean IC50 Values, BzRes” value is reported as “Activation”. In data set [5] (BQ, substrate BQ), this molecule gave an IC50 greater than 200 µM. Also, the IC50 in data set [5] (Ia, substrate compound Ia) is 11.5 µM.

For `CC(=O)O[C@H]1C(=O)[C@@]2(C)[C@H]([C@H](OC(=O)c3ccccc3)[C@]3(O)C[C@H](OC(=O)[C@H](O)[C@@H](NC(=O)c4ccccc4)c4ccccc4)C(C)=C1C3(C)C)[C@]1(OC(C)=O)CO[C@@H]1C[C@@H]2O` [paclitaxel], in [7], the “inhibition of the turnover of compound Ia” value was “inhibited the turnover of compound Ia”.

For the molecule `Nc1ccc(S(=O)(=O)Nc2ccnn2-c2ccccc2)cc1` [sulfaphenazole], in [8], the half-inhibitory concentration (IC50) result is “elevated”.

B1: CYP2C8 (Homo sapiens) (protein)
chain: MEPFVVLVLCLSFMLLFSLWRQSCRRRKLPPGPTPLPIIGNMLQIDVKDICKSFTNFSKVYGPVFTVYFGMNPIVVFHGYEAVKEALIDNGEEFSGRGNSPISQRITKGLGIISSNGKRWKEIRRFSLTTLRNFGMGKRSIEDRVQEEAHCLVEELRKTKASPCDPTFILGCAPCNVICSVVFQKRFDYKDQNFLTLMKRFNENFRILNSPWIQVCNNFPLLIDCFPGTHNKVLKNVALTRSYIREKVKEHQASLDVNNPRDFIDCFLIKMEQEKDNQKSEFNIENLVGTVADLFVAGTETTSTTLRYGLLLLLKHPEVTAKVQEEIDHVIGRHRSPCMQDRSHMPYTDAVVHEIQRYSDLVPTGVPHAVTTDTKFRNYLIPKGTTIMALLTSVLHDDKEFPNPNIFDPGHFLDKNGNFKKSDYFMPFSAGKRICAGEGLARMELFLFLTTILQNFNLKSVDDLKNLNTTAVTKGIVSLPPSYQICFIPV
notes: purchased GENTEST Corporation; host or cells: baculovirus/insect cells (microsomes, SUPERSOMES)
In the case of B1, in data set [9], the Km stood at 1.4 µM and the kcat amounted to 0.22 min⁻¹.

Usually IC50 stands for the midpoint of a concentration-inhibition curve. Low readings indicate inhibition by little substance, high ones a need for much substance. A word on the Km: it is the substrate concentration at which the rate is half of its maximum. By kcat is commonly meant the number of substrate molecules converted per active site and unit of time at saturation.
